Results: PubChem BioAssay (NCI)
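Cultured in 96-well plates, cells were exposed to test compound for 48 hours across five concentrations. GI50 is the concentration that inhibits growth by half. At the TGI there is no net growth.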

Legend:
Assay in all cases: NCI anticancer screen, dose series, 48 h
786-0 renal = system: 786-0 renal
CAKI-1 renal = system: CAKI-1 renal
HOP-62 NSCLC = system: HOP-62 NSCLC
HS 578T breast = system: HS 578T breast
IGROV1 ovarian = system: IGROV1 ovarian
M14 melanoma = system: M14 melanoma
OVCAR-3 ovarian = system: OVCAR-3 ovarian
SK-MEL-28 melanoma = system: SK-MEL-28 melanoma
SN12C renal = system: SN12C renal
SR leukemia = system: SR leukemia
NCI-H226 lung = system: NCI-H226 lung

SMILES	TGI (786-0 renal) [µM]	TGI (CAKI-1 renal) [µM]	TGI (HOP-62 NSCLC) [µM]	TGI (HS 578T breast) [µM]	TGI (IGROV1 ovarian) [µM]	TGI (M14 melanoma) [µM]	TGI (OVCAR-3 ovarian) [µM]	TGI (SK-MEL-28 melanoma) [µM]	TGI (SN12C renal) [µM]	TGI (SR leukemia) [µM]	TGI (NCI-H226 lung) [µM]	GI50 (IGROV1 ovarian) [µM]	GI50 (CAKI-1 renal) [µM]	GI50 (HOP-62 NSCLC) [µM]	GI50 (HS 578T breast) [µM]	GI50 (NCI-H226 lung) [µM]	GI50 (OVCAR-3 ovarian) [µM]	GI50 (SK-MEL-28 melanoma) [µM]	GI50 (SN12C renal) [µM]	GI50 (SR leukemia) [µM]
COc1ccc(CC2COc3cc(OC)cc(OC)c3C2=O)cc1 (stereo unspecified)	51.7	57.1	97.1	87.3	> 100	78.8	46.5	> 100	> 100	43.2										
CC1=C2C(O)C(C(C)C(=O)N(C)C)CCC2(C)C=CC1=O (stereo unspecified)		> 100	> 100		> 100		> 100	> 100	> 100		> 100									
CN(C)/C=C/C(=CC=[N+](C)C)/C=C/N(C)C	> 100	> 100	> 100		> 100	> 100	> 100	> 100	> 100	> 100	> 100									
CCC1C[N+]23CCc4c([nH]c5ccccc45)C2CC1CC3 (stereo unspecified)		> 100	> 100		> 100	> 100	> 100	> 100	> 100	> 100	> 100									
O=C1C=C(C2OC(CO)C(O)C2O)C(=O)N1 (stereo unspecified)			> 100		> 100		> 100	> 100	> 100		> 100									
Cc1n(CC(C)C)c2c([n+]1C)C(=O)c1ccccc1C2=O	3.41	> 21.7	0.76	3.05	0.101	1.06	0.0961	2.98	0.0671	11.5	1.27									
Cc1ccc2c(ccc(/C=C/c3ccc(O)c4ncccc34)[n+]2C)c1	26.7	33.3	32.9	> 100	45.6	40.3	10.4	33.1	35.6	> 35.7	46.5									
N#C[S-].[La+3].c1cnc2c(c1)ccc1cccnc12.c1cnc2c(c1)ccc1cccnc12.c1cnc2c(c1)ccc1cccnc12	11.7	12.7			19.2	3.57	19.2	33.9	16	8.8	4.63									
CCOC(=O)Nc1cc2c(c(N)n1)N=C(c1ccc(OC)cc1)CN2	1.9		1.49	0.00932	0.0741	19.1	0.0156		54.5			0.0355								
Cc1ccc(S(=O)(=O)Nc2cccc3c(=O)[nH]cnc23)cc1	> 100	> 100	> 100		> 100	> 100	> 100	> 100	> 100	> 100	> 100									
CCOP(=Nc1ccc(N(C)C)cc1)(OCC)OCC		> 100	> 100	> 100	> 100	> 100	> 100	> 100												
CC(=O)C(C(c1ccccc1)N1CCOCC1)N1CCOCC1 (stereo unspecified)	> 100	> 100	> 100	> 100	> 100	> 100	> 100	> 100	> 100	> 100	> 100									
CC1(C)[C@@H]2CC[C@]1(C)[C@H](OC(=O)CSC#N)C2	34.1	> 100	> 100	> 100	> 100	> 100	> 100	> 100	> 100		> 100									
O=S(=O)(O)c1ccc(N=Nc2ccc3c(S(=O)(=O)O)cccc3c2O)c2ccccc12	> 100	> 100	> 100	> 100	> 100	> 100	> 100	> 100	> 100		> 100									
Cc1cccc(Cl)c1NCC(O)CN1CCN(C)CC1 (stereo unspecified)	> 100	> 100	> 100	> 100	> 100	> 100	> 100	> 100	> 100	> 100	> 100									
COC1OC(CS(=O)(=O)O)C(O)C(O)C1O (stereo unspecified)		> 100	> 100	> 100	> 100	> 100	> 100	> 100	> 100	> 100	> 100									
C=C1C(=O)OC2/C=C(\C(=O)O)CC/C=C(\C)CC(OC(=O)/C=C(\C)CC)C12 (stereo unspecified)		54.1	34.5		40.9	31.2	30.8	34.2	31	> 100	32.9									
COc1cc2c(cc1O)c(O)cc1c3cc(OC)c(OC)cc3c[n+](C)c21	> 100	> 100	> 100	> 27.4		> 100	> 100	> 100			> 25.6									
CCCC(C)c1ccc(OCCCCCCN2CCNCC2)cc1 (stereo unspecified)		4.45	24.1	4.74	3.78		3.87	3.65	9.66	4.21	35.8	1.92	1.99	4.55	1.87	9.26	1.78	1.84	2.84	1.7
CN(C)CCNC(=O)c1cccc2c(=O)c3ccccc3oc12			97.5		> 100		> 100	> 100	> 78.7		76.5									
O=C(c1ccccc1)c1ccc2n[se]nc2c1		> 100			> 100	> 100		> 100	> 100											
